Drawing on the supplement of paper PMC10307832, this text covers relative viability for 1 cell line.

Common to all, as to experiment: relative viability (nuclei count vs DMSO), 5 days (fraction); higher = more cells survive
Compound in the assay “Vandetanib + Trametinib”: COc1cc2/c(=N/c3ccc(Br)cc3F)nc[nH]c2cc1OCC1CCN(C)CC1 [Vandetanib] + CC(=O)Nc1cccc(-n2c(=O)n(C3CC3)c(=O)c3c(Nc4ccc(I)cc4F)n(C)c(=O)c(C)c32)c1 [Trametinib] (partner 0.02 µM)
Put shortly:
(§1)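 Lung cancer cell lines in 1536-well plates were dosed by pin tool the day after seeding, either with one drug alone or with a fixed anchor-drug dose plus five library-drug doses (not always all listed) in √10 steps. After 5 days, cells were fixed and their nuclei stained in one step (final 0.05% Triton X-100, 1% formaldehyde, 1 ug/ml Hoechst), then counted on 4× images. Relative viability is the nuclei count in treated wells divided by that in vehicle wells. Values are medians of duplicate plates.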

Compound in the assay “Vandetanib + Navitoclax”: COc1cc2/c(=N/c3ccc(Br)cc3F)nc[nH]c2cc1OCC1CCN(C)CC1 [Vandetanib] + CC1(C)CCC(c2ccc(Cl)cc2)=C(CN2CCN(c3ccc(C(=O)NS(=O)(=O)c4ccc(N[C@H](CCN5CCOCC5)CSc5ccccc5)c(S(=O)(=O)C(F)(F)F)c4)cc3)CC2)C1 [Navitoclax] (partner 0.5 µM)
Put shortly: as §1

Compound in the assay “CUDC-101 + Tozasertib”: C#Cc1cccc(Nc2ncnc3cc(OC)c(OCCCCCCC(=O)NO)cc23)c1 [CUDC-101] + Cc1cc(Nc2cc(N3CCN(C)CC3)nc(Sc3ccc(NC(=O)C4CC4)cc3)n2)n[nH]1 [Tozasertib] (partner 0.1 µM)
A digest of the protocol:
as §1

Compound in the assay “Vandetanib + Palbociclib”: COc1cc2/c(=N/c3ccc(Br)cc3F)nc[nH]c2cc1OCC1CCN(C)CC1 [Vandetanib] + CC(=O)c1c(C)c2cnc(Nc3ccc(N4CCNCC4)cn3)nc2n(C2CCCC2)c1=O [Palbociclib] (partner 0.5 µM)
A digest of the protocol:
as §1

In the case of UMC-11, the relative viability was determined as 0.82 with Vandetanib + Trametinib (first compound 0.02 µM); 0.674 in the assay with Vandetanib + Trametinib (first compound 0.06325 µM); 0.627 with Vandetanib + Trametinib (first compound 0.2 µM); 0.632 with Vandetanib + Trametinib (first compound 0.6325 µM); 0.583 with Vandetanib + Trametinib (first compound 2 µM); 0.312 with Vandetanib + Navitoclax (first compound 0.02 µM). The relative viability was found to be 0.311 in the assay with Vandetanib + Navitoclax (first compound 0.06325 µM); 0.286 with Vandetanib + Navitoclax (first compound 0.2 µM); 0.308 with Vandetanib + Navitoclax (first compound 0.6325 µM); 0.309 in the assay with Vandetanib + Navitoclax (first compound 2 µM); 0.193 with CUDC-101 + Tozasertib (first compound 0.01 µM); 0.176 in the assay with CUDC-101 + Tozasertib (first compound 0.03162 µM). Also, the relative viability amounted to 0.193 with CUDC-101 + Tozasertib (first compound 0.1 µM); 0.155 with CUDC-101 + Tozasertib (first compound 0.3162 µM); 0.133 with CUDC-101 + Tozasertib (first compound 1 µM); 0.345 in the assay with Vandetanib + Palbociclib (first compound 0.02 µM); 0.336 with Vandetanib + Palbociclib (first compound 0.06325 µM); 0.321 with Vandetanib + Palbociclib (first compound 0.2 µM). Also, the figures for the relative viability with Vandetanib + Palbociclib (first compound 0.6325 µM) and in the assay with Vandetanib + Palbociclib (first compound 2 µM) were 0.348 and 0.345, respectively.
